Measured values as given in patent US20090170897A1, “Method of Treating Neuropathic Pain” (Pfizer, Inc., priority 2004, published 2009).

Experiments:
[1] = system: Streptozocin (STZ)-induced diabetes neuropathy in the rat; assay: STZ-induced dynamic allodynia (cotton bud, PWL); assay type: in vivo
Protocol: (§1) Male Sprague Dawley rats weighing 150-400 g obtained from Charles River (Manston, Kent, UK.) were housed in groups of 3. All animals were kept under a 12 h light/dark cycle (lights on at 07 h 00 min) with food and water ad libitum. All experiments were carried out by an observer blind to the treatments and in accordance with the Home Office Animals (Scientific Procedures) Act 1986.
Diabetes was induced by a single intraperitoneal injection of streptozotocin (50 mg/kg) freshly dissolved in 0.9% sterile saline. Streptozotocin injection induces a reproducible mechanical allodynia within 3 weeks, lasting for at least 7 weeks (Chen and Pan, (Chen S R and Pan H L. Hypersensitivity of Spinothalamic Tract Neurons Associated With Diabetic Neuropathic Pain in Rats. J Neurophysiol 87: 2726-2733, 2002).
(§2) Dynamic allodynia was assessed by lightly stroking the plantar surface of the hind paw with a cotton bud. To avoid recording general motor activity, care was taken to perform this procedure in fully habituated rats that were not active. At least two measurements were taken at each time point, the mean of which represented the paw withdrawal latency (PWL). […] A pain withdrawal response was often accompanied with repeated flinching or licking of the paw. Dynamic allodynia was considered to be present if animals responded to the cotton stimulus within 8 sec of commencing stroking (Field et al, 1999).
(§3) All the experiments were conducted blind. Static allodynia was expressed as median [LQ; UQ] and analysed by Mann Whitney U test. Dynamic allodynia and thermal hyperalgesia were expressed as arithmetic mean±SEM and analysed by ANOVA.

CRTH2 receptor [2] = biological target: T1, CRTH2 receptor (Homo sapiens, UniProt Q9Y5Y4); assay: competition binding of 3H-PGD2 at CRTH2 and DP receptors (selectivity); conditions: competition with 3H-PGD2 binding, IC50 at both receptors
T1 construct: Flag peptide (behind a 'prolac' signal peptide) (N); expressed in transfected cells
T1 sequence (Q9Y5Y4 1-395): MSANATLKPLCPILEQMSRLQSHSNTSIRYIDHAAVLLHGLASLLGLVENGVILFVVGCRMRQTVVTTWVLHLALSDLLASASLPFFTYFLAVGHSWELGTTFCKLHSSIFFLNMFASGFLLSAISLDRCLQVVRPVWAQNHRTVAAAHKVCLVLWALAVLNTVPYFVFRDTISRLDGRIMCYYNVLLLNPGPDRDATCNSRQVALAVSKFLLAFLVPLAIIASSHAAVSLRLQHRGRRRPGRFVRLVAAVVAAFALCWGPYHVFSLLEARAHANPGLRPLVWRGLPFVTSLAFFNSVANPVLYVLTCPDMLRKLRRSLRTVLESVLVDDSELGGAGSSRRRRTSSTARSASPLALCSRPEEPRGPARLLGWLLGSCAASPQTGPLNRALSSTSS
Protocol: A CRTH2 receptor ligand or antagonist, can be tested for selectivity for the CRTH2 receptor in comparison with DP. In the assay, the capacity of each test compound to compete with binding of ^3H-PGD2 is measured at both the CRTH2 and DP receptors, and an IC50 value (in μM) is determined. Controls can be set up using cold PGD2 to compete with ^3H-PGD2. Any of the above mentioned binding assay procedures can be used. Selectivity of CRTH2 receptor antagonists should be at least 10 fold compared to other GPCRs especially the D type of prostanoid receptor or DP receptor (N-cyclopropyl-N-[2-methyl-1-(pyridine-3-carbonyl)-1,2,3,4-tetrahydro-quinolin-4-yl]-acetamide is >50 fold selective), preferably it should be at least 100 fold selective and even more preferably at least 1000 fold selective, alternatively the antagonist should be selective for CRTH2 receptor over any of the receptors C3a, C5a, FMLP, LTB4, GPCR0269, GPCR0232 or GPCR0288.

[3] = compound level in rat CSF after oral administration; assay type: in vivo
Protocol: Moreover the antagonist produced a long lasting anti-hyperalgesic effect in the CITH rat model. N-cyclopropyl-N-[2-methyl-1-(pyridine-3-carbonyl)-1,2,3,4-tetrahydro-quinolin-4-yl]-acetamide was dosed in the rat blood and CSF at various time points after oral administration.

[4] = system: Chronic Constriction Injury (CCI) rat model of neuropathic pain; assay: CCI-induced dynamic allodynia (cotton bud, PWL); assay type: in vivo
Protocol: as §1
The CCI of sciatic nerve was performed as previously described by Bennett and Xie (Bennett G J, Xie Y K. A peripheral mononeuropathy in rat that produces disorders of pain sensation like those seen in man. Pain:33:87-107, 1988). Animals were anaesthetised with a 2% isofluorane/O2 mixture. The right hind thigh was shaved and swabbed with 1% iodine. Animals were then transferred to a homeothermic blanket for the duration of the procedure and anaesthesia maintained during surgery via a nose cone. The skin was cut along the line of the thighbone. The common sciatic nerve was exposed at the middle of the thigh by blunt dissection through biceps femoris. About 7 mm of nerve was freed proximal to the sciatic trifurcation, by inserting forceps under the nerve and the nerve gently lifted out of the thigh. Suture was pulled under the nerve using forceps and tied in a simple knot until slight resistance was felt and then double knotted. The procedure was repeated until 4 ligatures (4-0 silk) were tied loosely around the nerve with approx 1 mm spacing. The incision was closed in layers.
as §2, §3

CRTH2 receptor [5] = biological target: T2, CRTH2 receptor (Rattus norvegicus, UniProt Q6XKD3); assay: IC50 at rat CRTH2 receptor (rIC50)
T2 sequence (Q6XKD3 1-403): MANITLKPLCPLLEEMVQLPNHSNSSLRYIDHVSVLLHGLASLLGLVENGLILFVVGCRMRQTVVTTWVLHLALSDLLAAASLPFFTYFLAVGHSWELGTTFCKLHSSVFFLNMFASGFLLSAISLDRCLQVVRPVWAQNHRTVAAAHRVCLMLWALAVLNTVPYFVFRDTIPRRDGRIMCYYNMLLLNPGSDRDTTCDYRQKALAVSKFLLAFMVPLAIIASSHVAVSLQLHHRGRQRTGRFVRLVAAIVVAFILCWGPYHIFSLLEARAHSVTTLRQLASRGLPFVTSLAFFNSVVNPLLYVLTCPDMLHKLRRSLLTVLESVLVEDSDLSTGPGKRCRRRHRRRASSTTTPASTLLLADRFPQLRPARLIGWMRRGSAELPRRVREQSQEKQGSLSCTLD

CC(=O)N(C1CC1)C1CC(C)N(C(=O)c2cccnc2)c2ccccc21 (stereo not drawn) [N-cyclopropyl-N-[2-methyl-1-(pyridine-3-carbonyl)-1,2,3,4-tetrahydro-quinolin-4-yl]-acetamide]
duration of biologically relevant effect, STZ dynamic allodynia ([1]; 25 mg/kg PO): up to 2 hr | time of peak effect, STZ dynamic allodynia ([1]; 25 mg/kg PO, post compound dose): 1 h | effect on maintenance of STZ-induced dynamic allodynia ([1]; compound 25 mg/kg PO, gabapentin 100 mg/kg PO (positive control)): reversed | selectivity for CRTH2 receptor compared to DP receptor (CRTH2 receptor [2]): > 50 fold | blood brain barrier penetration [3]: appears to cross the blood brain barrier | time of peak effect, dynamic allodynia ([4]; 25 mg/kg PO (MED), post administration): 1 h | effect on maintenance of CCI-induced dynamic allodynia ([4]; 12.5, 25 and 50 mg/kg PO, from 14 days post surgery): reversed the maintenance of CCI-induced static and dynamic allodynia in a dose dependent manner | MED, dynamic allodynia ([4]; PO): 25 mg/kg | dynamic allodynia effect relative to gabapentin ([4]; highest dose (50 mg/kg PO) vs gabapentin 100 mg/kg PO): less potent but significantly different from vehicle treated CCI rats | dynamic allodynia paw withdrawal latency (mean±SEM) ([4]; highest dose (50 mg/kg PO), 2 hrs post administration, vehicle 3.5±0.7): 11.8±1.0 | onset of anti-allodynic effect, dynamic allodynia ([4]; highest dose (50 mg/kg PO), post dose, p<0.01 vs vehicle): 30 min | IC50 (CRTH2 receptor [5]): 0.045 µM
